Test results: patent US11590233B2, “Porphyrin compounds and compositions useful for treating cancer” (OncoSelect Therapeutics, LLC, priority 2016, dated 2023)

How the values were obtained:
HCC15 = assay: TCPP uptake in cancer cells vs non-cancer cells by flow cytometry; format: cell-based, human; conditions: 10 ug/ml, HCC15 vs bone marrow cells
From the text: (§1) Porphyrin tetrakis(4-carboxyphenyl)porphyrin (TCPP) uptake by a panel of human lung cancer cell lines including, HCC15, H157, and H358 were examined using flow cytometry in under varying conditions to manipulate clathrin-dependent and independent endocytosis by chemical inhibitors. Referring now to FIG. 1, TCPP uptake in cancer cells (HCC15) as compared to bone marrow cells in a dose dependent manner is illustrated. Similar results are observed with mouse normal lung cells as is shown for bone marrow cells. The uptake of TCPP by HCC15 is greater than 2-fold at 10 ug/ml as compared to the non-cancer cells. […] Chlorpromazine, an antagonist of clathrin-mediated endocytosis, inhibited TCPP uptake in a cancer cell line by up to 80% as is illustrated in FIG. 3. In contrast, the clathrin-independent endocytosis inhibitor filipin had no effect on TCPP uptake. It has been speculated that preferential porphyrin uptake by cancer cells as compared to non-cancer cells is facilitated by the increased number of LDL receptor (LDLR) on the surface of cancer cells. To examine LDLR contribution on TCPP uptake, lung cancer cells were manipulated to express no LDLR, which reduced TCPP uptake by only 20%.

[1] = test system: human fibroblasts without functional LDLR; assay: TCPP uptake in human fibroblasts without functional LDLR; format: cell-based
HCC15, H157 and H358 = assay: TCPP uptake in cancer cell lines under sucrose or cold temperature (FIG. 2); format: cell-based, human
From the text: (§2) Porphyrin tetrakis(4-carboxyphenyl)porphyrin (TCPP) uptake by a panel of human lung cancer cell lines including, HCC15, H157, and H358 were examined using flow cytometry in under varying conditions to manipulate clathrin-dependent and independent endocytosis by chemical inhibitors. […] It has been speculated that preferential porphyrin uptake by cancer cells as compared to non-cancer cells is facilitated by the increased number of LDL receptor (LDLR) on the surface of cancer cells.

lung cancer cells = assay: TCPP uptake in lung cancer cells manipulated to express no LDLR; format: cell-based, human; conditions: lung cancer cells expressing no LDLR
From the text: as §1

a cancer cell line = assay: TCPP uptake by a cancer cell treated with different inhibitors of endocytosis (FIG. 3); format: cell-based, human
From the text: as §2

For `O=C(O)c1ccc(-c2c3nc(c(-c4ccc(C(=O)O)cc4)c4ccc([nH]4)c(-c4ccc(C(=O)O)cc4)c4nc(c(-c5ccc(C(=O)O)cc5)c5ccc2[nH]5)C=C4)C=C3)cc1` [TCPP, tetrakis(4-carboxyphenyl)porphyrin], the “uptake of TCPP by HCC15 as compared to the non-cancer cells” value (HCC15) was “greater than 2 fold”, the “inhibition of TCPP uptake” value [1] was “no inhibition” and the “inhibition of TCPP uptake by cold temperature” value (HCC15, H157 and H358; cold temperature) was “nearly completely inhibited”. The “reduction of TCPP uptake” value (lung cancer cells) was 20%.

`CCCCC[C@@H](O)[C@H]1C(=O)O[C@H](C)[C@@H](O)/C=C/C=C/C=C/C=C/C=C(\C)[C@@H](O)C[C@H](O)C[C@H](O)C[C@H](O)C[C@H](O)C[C@H](O)C[C@@H]1O` [filipin] was tested, and the “effect on TCPP uptake” value (a cancer cell line; clathrin-independent endocytosis inhibitor) was “no effect”.

For `OC[C@H]1O[C@@](CO)(O[C@H]2O[C@H](CO)[C@@H](O)[C@H](O)[C@H]2O)[C@@H](O)[C@@H]1O` [sucrose], the “inhibition of TCPP uptake by sucrose” value (HCC15, H157 and H358; flow cytometry) was “moderately inhibited”.

With `CN(C)CCCN1c2ccccc2Sc2ccc(Cl)cc21` [Chlorpromazine] the “inhibition of TCPP uptake” value (a cancer cell line; antagonist of clathrin-mediated endocytosis, a cancer cell line) was “up to 80%”.
